Results from paper PMC9025560, “A Comparison of Evans Blue and 4-(p-Iodophenyl)butyryl Albumin Binding Moieties on an Integrin αvβ6 Binding Peptide” (Pharmaceutics, 2022).
Like-named read-outs stand apart in the source and are kept apart here.

Experiments:
BxPC-3 xenograft tumors = assay: Biodistribution in mice bearing BxPC-3 xenograft tumors; format: in vivo; conditions: for Kidneys uptake: i.v.
Summary of the method: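 Female athymic nu/nu mice bearing subcutaneous BxPC-3 (integrin αvβ6-positive) flank tumors 0.5–1 cm, given [^64Cu]-labelled peptides (3.7–5.55 MBq) i.v. via tail vein. Tissues taken at 4, 24, 48 and 72 h p.i. and γ-counted; decay-corrected uptake reported as % ID/g, mean ± SD.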

[1] = Stability in human serum at 37 °C; format: in vitro ADME; conditions: read-out: Stability in human serum, % intact
Description: For serum stability, mouse serum or human serum (0.5 mL, both purchased from Sigma-Aldrich) was combined with an aliquot of each of the peptides [^64Cu]1 and [^64Cu]2 (≤25 μL, 14.8–22.2 MBq) and incubated at 37 °C. At each time point (1, 4, and 24 h) an aliquot (50–200 μL) was taken, proteins precipitated with ethanol, and removed by pelleting at 1500 (RCF) for 4 min. The ethanol solution was diluted with water (1 mL) and analyzed by RP-HPLC as previously described.

[2] = Blocking biodistribution with pre-administered metal free peptide; format: in vivo, mice; conditions: female, athymic nu/nu-nude, mouse, intravenous, total radioactivity, 4 h p.i., metal free peptide 10 min before, n = 1
Description: For blocking studies, the metal free peptides 1 or 2 (~220 nmol, 1.3 mg in 100 μL PBS), respectively, were injected i.v. (n = 1/peptide) as described above 10 min prior to the injection of matching radiolabeled [^64Cu]1 or [^64Cu]2 (3.7–5.55 MBq, 100 μL PBS). After a conscious 4 h uptake period, the animals were anesthetized, sacrificed, tissues rapidly collected, and analyzed as described above. Decay-corrected radioactivity concentrations are expressed as a percentage of injected dose per gram of tissue (% ID/g) (Figure S23).

## Cc1cc(-c2ccc(NC(=O)CCC(=O)NCCCC[C@H](NC(=O)CN3CCN(CC(=O)O)CCN(CC(=O)O)CCN(CC(=O)O)CC3)C(=O)NCCOCCOCCOCCOCCOCCOCCOCCOCCOCCOCCOCCOCCOCCOCCOCCOCCOCCOCCOCCOCCOCCOCCOCCOCCOCCOCCOCCOCCC(=O)N[C@@H](CC(N)=O)C(=O)N[C@@H](C)C(=O)N[C@H](C(=O)N3CCC[C@H]3C(=O)N[C@@H](CC(N)=O)C(=O)N[C@@H](CC(C)C)C(=O)N[C@@H](CCCNC(=N)N)C(=O)NCC(=O)N[C@@H](CC(=O)O)C(=O)N[C@@H](CC(C)C)C(=O)N[C@@H](CCC(N)=O)C(=O)N[C@H](C(=O)N[C@@H](CC(C)C)C(=O)N[C@@H](C)C(=O)N[C@@H](CCC(N)=O)C(=O)N[C@@H](CCCNC(=N)N)C(=O)N[C@H](C(=O)N[C@@H](C)C(=O)N[C@@H](CCCNC(=N)N)C(=O)N[C@H](C(=O)NCCOCCOCCOCCOCCOCCOCCOCCOCCOCCOCCOCCOCCOCCOCCOCCOCCOCCOCCOCCOCCOCCOCCOCCOCCOCCOCCOCCOCCC(N)=O)[C@@H](C)O)C(C)C)C(C)C)C(C)C)c(C)c2)ccc1N=Nc1ccc2c(S(=O)(=O)O)cc(S(=O)(=O)O)c(N)c2c1O [[^64Cu]1, [^64Cu]Cu DOTA-EB-αvβ6-BP, metal not drawn]
BxPC-3 xenograft tumors; 4 h p.i.
  Tumor-Blood ratio: > 4/1
  Tumor-Kidney ratio: 0.07 ± 0.003
  Tumor-Lg Intestines ratio: 1.28 ± 0.12
  Tumor-Liver ratio: 3.2–4.9
  Tumor-Muscle ratio: > 8/1
  Tumor-Sm Intestines ratio: 1.12 ± 0.05
  Tumor-Stomach ratio: 0.83 ± 0.03
  Kidneys uptake: 75.5 ± 7.3 % ID/g
BxPC-3 xenograft tumors; 4 h p.i., listed as [64Cu]1
  Tumor-Blood ratio: 4.30 ± 1.47
  Tumor-Liver ratio: 3.24 ± 0.14
  Tumor-Muscle ratio: 7.95 ± 0.55
BxPC-3 xenograft tumors; 24 h p.i.
  Tumor-Blood ratio: 15.41 ±3.77
  Tumor-Kidney ratio: 0.13 ± 0.06
  Tumor-Lg Intestines ratio: 1.41 ±0.43
  Tumor-Liver ratio: 2.39 ± 0.59
  Tumor-Muscle ratio: 9.47 ±4.84
  Tumor-Sm Intestines ratio: 1.75 ±0.52
  Tumor-Stomach ratio: 1.19 ±0.02
BxPC-3 xenograft tumors; 48 h p.i.
  Tumor-Blood ratio: 12.03± 1.44
  Tumor-Kidney ratio: 0.15 ± 0.02
  Tumor-Lg Intestines ratio: 1.51 ± 0.58
  Tumor-Liver ratio: 1.51 ± 0.29
  Tumor-Muscle ratio: 8.39 ± 3.59
  Tumor-Sm Intestines ratio: 2.18 ± 0.91
  Tumor-Stomach ratio: 1.41 ± 0.79
BxPC-3 xenograft tumors; 72 h
  Fold higher liver uptake than [64Cu]2: > 1.8 fold
BxPC-3 xenograft tumors; 72 h p.i.
  Tumor-Blood ratio: 10.07 ± 3.24
  Tumor-Kidney ratio: 0.19 ± 0.08
  Tumor-Lg Intestines ratio: 1.75 ±0.48
  Tumor-Liver ratio: 1.47 ± 0.47
  Tumor-Muscle ratio: 8.11 ±3.02
  Tumor-Sm Intestines ratio: 2.43 ±0.45
  Tumor-Stomach ratio: 1.65 ±0.32
  Kidneys uptake: 20.0 ± 6.9 % ID/g
BxPC-3 xenograft tumors; BxPC-3 tumor model
  Fold increase in tumor accumulation over non-ABM [64Cu]Cu DOTA-αvβ6-BP: > 3 fold
BxPC-3 xenograft tumors; for at least 48 h
  Fold higher kidney uptake than [64Cu]2: > 1.7 fold
[1]; 1 h
  remaining at 1 h: 99%
[1]; 4 h
  remaining at 4 h: 89%
[1]; 24 h
  remaining at 24 h: 76%
[2]; BxPC-3 tumor, read-out: BxPC-3 Tumor uptake, blocked
  tissue uptake at 4 h: 2.91 %ID/g
[2]; blood, read-out: Blood uptake, blocked
  tissue uptake at 4 h: 2.56 %ID/g
[2]; bone, read-out: Bone uptake, blocked
  tissue uptake at 4 h: 0.43 %ID/g
[2]; brain, read-out: Brain uptake, blocked
  tissue uptake at 4 h: 0.07 %ID/g
[2]; gall bladder, read-out: Gall Bladder uptake, blocked
  tissue uptake at 4 h: 1.96 %ID/g
[2]; heart, read-out: Heart uptake, blocked
  tissue uptake at 4 h: 0.96 %ID/g
[2]; kidneys, read-out: Kidneys uptake, blocked
  tissue uptake at 4 h: 71.6 %ID/g
[2]; large intestines, read-out: Lg. Intestines uptake, blocked
  tissue uptake at 4 h: 0.9 %ID/g
[2]; liver, read-out: Liver uptake, blocked
  tissue uptake at 4 h: 1.92 %ID/g
[2]; lung, read-out: Lung uptake, blocked
  tissue uptake at 4 h: 1.65 %ID/g
[2]; muscle, read-out: Muscle uptake, blocked
  tissue uptake at 4 h: 0.41 %ID/g
[2]; pancreas, read-out: Pancreas uptake, blocked
  tissue uptake at 4 h: 0.39 %ID/g
[2]; skin, read-out: Skin uptake, blocked
  tissue uptake at 4 h: 1.12 %ID/g
[2]; small intestines, read-out: Sm. Intestines uptake, blocked
  tissue uptake at 4 h: 0.91 %ID/g
[2]; spleen, read-out: Spleen uptake, blocked
  tissue uptake at 4 h: 0.85 %ID/g
[2]; stomach, read-out: Stomach uptake, blocked
  tissue uptake at 4 h: 0.72 %ID/g
